The values that follow come from ChEMBL document CHEMBL5257089, “Gamabufotalin Induces Apoptosis and Cytoprotective Autophagy through the mTOR Signaling Pathway in Hepatocellular Carcinoma” (J Nat Prod, 2023).

Data set [1] deals with Huh-7. Briefly: Induction of autophagic flux in human Huh-7 cells assessed as rescue of LC3-I accumulation at 10 uM incubated for 48 hrs in presence of gamabufotalin by Western blot analysis. It counts as functional, cell-based. For orientation: A western blot detects proteins with antibodies after separation by electrophoresis.
Data set [2] relates to Huh-7. Briefly: Induction of apoptosis in human Huh-7 cells assessed as late apoptotic cells at 10 nM incubated for 48 hrs by Annexin V-FITC/PI staining based flow cytometry method (reference value: 4.7%). It counts as functional.
The test system of data set [3] is Huh-7. Briefly: Induction of apoptosis in human Huh-7 cells assessed as increase in caspase-3 level at 10 nM incubated for 48 hrs in presence of gamabufotalin by immunoblot analysis. The class given is functional, cell-based.
Data set [4] has as its system Huh-7. Put plainly: Induction of apoptosis in human Huh-7 cells assessed as increase in bax level at 10 nM incubated for 48 hrs in presence of gamabufotalin by immunoblot analysis. It counts as functional, cell-based.
Data set [5] concerns Huh-7. Briefly: Induction of autophagic flux in human Huh-7 cells assessed as rescue of p62 at 10 uM incubated for 48 hrs in presence of gamabufotalin by Western blot analysis. The class given is functional, cell-based.
Data set [6] concerns Hep 3B2. Briefly: Induction of apoptosis in human Hep3B cells assessed as increase in bax level at 10 nM incubated for 48 hrs in presence of gamabufotalin by immunoblot analysis. It counts as functional, cell-based.
The subject of data set [7] is Huh-7. Put plainly: Induction of autophagic flux in human Huh-7 cells assessed as increase in intracellular vesicles at 25 nM incubated for 48 hrs by transmission electron microscopic analysis. It counts as functional, cell-based.
Data set [8] in a line: Toxicity in mouse assessed as effect on serum AST level at 5 mg/kg,ip administered every second day for 3 weeks by H and E staining based microscopic method. The note with it: in vivo, 504 h. It counts as organism-based.
Data set [9] has as its system Huh-7. Briefly: Induction of apoptosis in human Huh-7 cells assessed as viable cells at 25 nM incubated for 48 hrs by Annexin V-FITC/PI staining based flow cytometry method (reference value: 90.0%). It counts as functional. The settings on record: read-out: Activity. In general terms: A flow cytometer gives signals particle by particle.
Data set [10] deals with Hep 3B2. Put plainly: Induction of apoptosis in human Hep3B cells assessed as early apoptotic cells at 20 nM incubated for 48 hrs by Annexin V-FITC/PI staining based flow cytometry method (reference value: 3.9%). The class given is functional.
Data set [11] can be described thus: Toxicity in mouse assessed as effect on serum ALT level at 5 mg/kg,ip administered every second day for 3 weeks by H and E staining based microscopic method. The settings on record: in vivo, 504 h. The class given is organism-based.
In data set [12] the test system is Hep 3B2. Put plainly: Induction of apoptosis in human Hep3B cells assessed as late apoptotic cells at 25 nM incubated for 48 hrs by Annexin V-FITC/PI staining based flow cytometry method (reference value: 2.2%). It counts as functional.
Data set [13] deals with Huh-7. Briefly: Induction of autophagic flux in human Huh-7 cells assessed as rescue of p62 at 25 uM incubated for 48 hrs in presence of chloroquine by Western blot analysis. The class given is functional, cell-based.
For data set [14], the system named is Hep 3B2. Put plainly: Induction of autophagy in human Hep3B cells assessed as reduction in autophagic vesicles at 25 nM incubated for 48 hrs in presence of 4,6-dimorpholino-N-(4-nitrophenyl)-1,3,5-triazin-2-amine by transmission electron microscopy based analysis. The class given is functional, cell-based.
Data set [15] deals with Hep 3B2. Put plainly: Antitumor activity against human Hep3B cells xenografted in nude mouse model assessed as upregulation of cleaved caspase-3 expression at 5 mg/kg,ip administered every second day for 3 weeks by Western blot analysis. It counts as functional, organism-based.
Data set [16] concerns Hep 3B2. Put plainly: Inhibition of colony formation in human Hep3B cells at upto 25 uM incubated for 48 hrs by crystal violet staining based analysis. It counts as functional, cell-based.
Data set [17] relates to Huh-7. Briefly: Induction of apoptosis in human Huh-7 cells assessed as increase in PARP level at 25 nM incubated for 48 hrs in presence of chloroquine by immunoblot analysis. The class given is functional, cell-based.
Data set [18] relates to Huh-7. Briefly: Induction of apoptosis in human Huh-7 cells assessed as increase in Bcl-2 expression at upto 25 nM incubated for 48 hrs by Western blot analysis. The class given is functional, cell-based.
Data set [19] concerns Hep 3B2. Put plainly: Induction of autophagy in human Hep3B cells assessed as upregulation of p62 at 25 uM incubated for 48 hrs in presence of 4,6-dimorpholino-N-(4-nitrophenyl)-1,3,5-triazin-2-amine by immunoblot analysis. The class given is functional, cell-based.
Data set [20] deals with Hep 3B2. Briefly: Induction of autophagy in human Hep3B cells assessed as restoration of mTOR phosphorylation expression at 25 uM incubated for 48 hrs in presence of 4,6-dimorpholino-N-(4-nitrophenyl)-1,3,5-triazin-2-amine by immunoblot analysis. The class given is functional, cell-based.
For data set [21], the system named is Huh-7. Put plainly: Induction of apoptosis in human Huh-7 cells assessed as […] in Bax level at upto 25 nM incubated for 48 hrs by Western blot analysis. It counts as functional, cell-based.
Data set [22] deals with Hep 3B2. Briefly: Induction of apoptosis in human Hep3B cells assessed as necrotic cells at 25 nM incubated for 48 hrs in presence of 4,6-dimorpholino-N-(4-nitrophenyl)-1,3,5-triazin-2-amine by Annexin V-FITC/PI staining based flow cytometry method (reference value: 0.7%). It counts as functional.
The test system of data set [23] is Huh-7. Put plainly: Induction of apoptosis in human Huh-7 cells assessed as late apoptotic cells at 25 nM incubated for 48 hrs by Annexin V-FITC/PI staining based flow cytometry method (reference value: 3.8%). The class given is functional.
The subject of data set [24] is Hep 3B2. Briefly: Induction of apoptosis in human Hep3B cells assessed as viable cells at 15 nM incubated for 48 hrs by Annexin V-FITC/PI staining based flow cytometry method (reference value: 93.3%). It counts as functional. The settings on record: read-out: Activity.
For data set [25], the system named is Hep 3B2. Put plainly: Induction of autophagy in human Hep3B cells harbouring mCherry-egfp-LC3 assessed as reduction in yellow puncta ratio at 25 nM incubated for 15 mins in presence of 4,6-dimorpholino-N-(4-nitrophenyl)-1,3,5-triazin-2-amine by laser scanning confocal microscopic analysis. It counts as functional, cell-based.
The test system of data set [26] is Hep 3B2. Briefly: Induction of apoptosis in human Hep3B cells assessed as necrotic cells at 25 nM measured after 48 hrs by annexin V-FITC/Propidium iodide staining based flow cytometric analysis (reference value: 0.3%). It counts as functional.
In data set [27] the test system is Hep 3B2. Briefly: Induction of autophagy in human Hep3B cells assessed as restoration of ULK1 phosphorylation expression at 25 uM incubated for 48 hrs in presence of 4,6-dimorpholino-N-(4-nitrophenyl)-1,3,5-triazin-2-amine by immunoblot analysis. It counts as functional, cell-based.
The test system of data set [28] is Hep 3B2. Put plainly: Induction of apoptosis in human Hep3B cells assessed as late apoptotic cells at 15 nM incubated for 48 hrs by Annexin V-FITC/PI staining based flow cytometry method (reference value: 2.6%). It counts as functional.
Data set [29] has as its system Huh-7. Briefly: Induction of apoptosis in human Huh-7 cells assessed as early apoptotic cells at 25 nM incubated for 48 hrs by Annexin V-FITC/PI staining based flow cytometry method (reference value: 2.8%). It counts as functional.
Data set [30] can be described thus: Toxicity in mouse assessed as effect on liver at 5 mg/kg,ip administered every second day for 3 weeks by H and E staining based microscopic method. The note with it: in vivo, 504 h. The class given is organism-based.
For data set [31], the system named is Huh-7. Put plainly: Induction of apoptosis in human Huh-7 cells assessed as increase in cleaved caspase-3 expression at upto 25 nM incubated for 48 hrs by Western blot analysis. The class given is functional, cell-based.
Data set [32] concerns Huh-7. Put plainly: Induction of apoptosis in human Huh-7 cells assessed as upregulation of cleaved PARP level […] incubated for 48 hrs in presence of 4,6-dimorpholino-N-(4-nitrophenyl)-1,3,5-triazin-2-amine by immunoblot analysis. It counts as functional, cell-based.
Data set [33] deals with Hep 3B2. Put plainly: Induction of apoptosis in human Hep3B cells assessed as early apoptotic cells at 25 nM measured after 48 hrs in presence of Z-VAD-FMK by annexin V-FITC/Propidium iodide staining based flow cytometric analysis (reference value: 1.6%). It counts as functional.

Calls of active or inactive are those of the source. No cut-off for these calls is given here.

Regarding `CCN(CC)CCCC(C)Nc1ccnc2cc(Cl)ccc12` (stereo not drawn) [CHLOROQUINE], the outcome with Huh-7 [1], with Huh-7 [3], in the data set with Huh-7 [4], in the data set with Huh-7 [5] and with Hep 3B2 [6] was Active. For the same compound, the Activity with Huh-7 [2] was found to be 4.9%.
With `C[C@]12CC[C@H](O)C[C@H]1CC[C@@H]1[C@@H]2[C@H](O)C[C@]2(C)[C@@H](c3ccc(=O)oc3)CC[C@]12O` [GAMABUFOTALIN], the outcome in the data set on Huh-7 [7], in the data set on Huh-7 [13], in the data set on Hep 3B2 [14], in the data set with Hep 3B2 [15], in the data set on Huh-7 [17] and with Huh-7 [18] was Active. Besides, the outcome in the data set with Hep 3B2 [19], with Hep 3B2 [20], in the data set with Huh-7 [21], in the data set on Hep 3B2 [25], in the data set with Hep 3B2 [27] and in the data set with Huh-7 [31] was Active. Moreover, the outcome in the data set on Huh-7 [32] was Active. For the same compound, the Activity result in data set [8] is “Non-Toxic”; in the data set with Hep 3B2 [10] it was 7.8%; in data set [11] it was “Non-Toxic”; in the data set with Hep 3B2 [12] it was 10.9%; in the data set on Hep 3B2 [22] it was 1.7%; in the data set with Huh-7 [23], 7.7%. Further, the Activity is 0.6% in the data set on Hep 3B2 [26]; 4.5% with Hep 3B2 [28]; 8.7% with Huh-7 [29]; “Non-Toxic” in data set [30]; 4.4% with Hep 3B2 [33]. Further, the viability at 0.025 µM in the data set on Huh-7 [9] stood at 81.5%. In the data set on Hep 3B2 [16], the inhibition result is “Active”. Besides, the viability at 0.015 µM in the data set on Hep 3B2 [24] was determined as 88.2%.
